From patent US9629942B2, “Limus-coated medical devices” (Innora GmbH, priority 2010, dated 2017)

Tests used:
[1] = Stability of sirolimus on a balloon catheter; format: physicochemical; details: at the dose level applied
Procedure: Balloons for percutaneous transluminal coronary angioplasty (Cordis Fire Star catheters, Cordis Corp., USA) were coated either with sirolimus alone or combined with different amounts of BHT. Coated balloons were tested in respect of sirolimus loss during the passage through a hemostatic valve, Medtronic Launcher JL 3.5 6F guiding catheter, and one minute in stirred blood (37° C.).

neointimal proliferation = test: Inhibition of neointimal proliferation; format: in vivo; details: BHT without sirolimus, at the dose level applied

Question: With Cc1cc(C(C)(C)C)c(O)c(C(C)(C)C)c1 [BHT, butylated hydroxytoluene] as the molecule, how does the “Effect of BHT on stability of sirolimus on a balloon catheter” value [1] read?
Answer: The value was “does not significantly increase the stability of sirolimus”.

Question: What about the “Inhibition of neointimal proliferation” value (neointimal proliferation) of the same molecule?
Answer: The value was “does not inhibit neointimal proliferation”.
